Assay results taken from the NIST ThermoML archive (doi:10.1021/je901071x).

Assays:
[1] = 101 kPa, Liquid; for viscosity: Capillary tube (Ostwald / Ubbelohde) method; for mass density: Vibrating tube method
[2] = xn = mol fraction of the nth substance listed; settings: 101 kPa, Liquid; for viscosity: Capillary tube (Ostwald / Ubbelohde) method; for mass density: Vibrating tube method

CC(C)Cc1ccccc1 [(2-methylpropyl)benzene]
[1]
Settings | mass density [kg/m3] | viscosity [mPa·s]
303.15 K | 844.4 | 0.905
308.15 K | 841.1 | 0.848
313.15 K | 837.6 | 0.784

CC(C)Cc1ccccc1 [(2-methylpropyl)benzene] + CCCOC=O
[2]
Settings | mass density, 303.15 K [kg/m3] | mass density, 308.15 K [kg/m3] | mass density, 313.15 K [kg/m3] | viscosity, 303.15 K [mPa·s] | viscosity, 308.15 K [mPa·s] | viscosity, 313.15 K [mPa·s]
x2 = 0 | 844.4 | 841.1 | 837.6 | 0.905 | 0.848 | 0.784
x2 = 0.1508 | 848.8 | 845.2 | 841.4 | 0.813 | 0.771 | 0.718
x2 = 0.287 | 853.3 | 849.5 | 845.6 | 0.743 | 0.706 | 0.661
x2 = 0.4072 | 857.9 | 854 | 850 | 0.687 | 0.654 | 0.614
x2 = 0.519 | 862.9 | 858.7 | 854.5 | 0.64 | 0.61 | 0.575
x2 = 0.6161 | 867.7 | 863.4 | 859.1 | 0.602 | 0.575 | 0.543
x2 = 0.708 | 872.9 | 868.5 | 864 | 0.569 | 0.544 | 0.515
x2 = 0.7895 | 878 | 873.4 | 868.8 | 0.54 | 0.519 | 0.492
x2 = 0.8656 | 883.2 | 878.4 | 873.7 | 0.516 | 0.497 | 0.471
x2 = 0.9341 | 888.3 | 883.4 | 878.6 | 0.495 | 0.476 | 0.451

c1ccccc1 [benzene]
[1]
Settings | mass density [kg/m3] | viscosity [mPa·s]
303.15 K | 867.6 | 0.569
308.15 K | 863.2 | 0.534
313.15 K | 858.9 | 0.497

c1ccccc1 [benzene] + CCCOC=O
[2], x2 = 0
Settings | mass density [kg/m3] | viscosity [mPa·s]
303.15 K | 867.6 | 0.569
308.15 K | 863.2 | 0.534
313.15 K | 858.9 | 0.497

CCCCc1ccccc1 [butylbenzene]
[1]
Settings | mass density [kg/m3] | viscosity [mPa·s]
303.15 K | 851.3 | 0.901
308.15 K | 848 | 0.844
313.15 K | 844.6 | 0.787

CCCCc1ccccc1 [butylbenzene] + CCCOC=O
[2], x2 = 0
Settings | mass density [kg/m3] | viscosity [mPa·s]
303.15 K | 851.3 | 0.901
308.15 K | 848 | 0.844
313.15 K | 844.6 | 0.787

CC(C)c1ccccc1 [isopropylbenzene]
[1]
Settings | mass density [kg/m3] | viscosity [mPa·s]
303.15 K | 852.7 | 0.69
308.15 K | 849 | 0.651
313.15 K | 845.4 | 0.611

CC(C)c1ccccc1 [isopropylbenzene] + CCCOC=O
[2], x2 = 0
Settings | mass density [kg/m3] | viscosity [mPa·s]
303.15 K | 852.7 | 0.69
308.15 K | 849 | 0.651
313.15 K | 845.4 | 0.611

CCCOC=O [propyl methanoate]
[1]
Settings | mass density [kg/m3] | viscosity [mPa·s]
303.15 K | 893.5 | 0.477
308.15 K | 888.6 | 0.456
313.15 K | 883.8 | 0.431

CCCOC=O [propyl methanoate] + CC(C)Cc1ccccc1
[2], x1 = 1
Settings | mass density [kg/m3] | viscosity [mPa·s]
303.15 K | 893.5 | 0.477
308.15 K | 888.6 | 0.456
313.15 K | 883.8 | 0.431

CCCOC=O [propyl methanoate] + CC(C)c1ccccc1
[2]
Settings | mass density, 303.15 K [kg/m3] | mass density, 308.15 K [kg/m3] | mass density, 313.15 K [kg/m3] | viscosity, 303.15 K [mPa·s] | viscosity, 308.15 K [mPa·s] | viscosity, 313.15 K [mPa·s]
x1 = 0.1349 | 856 | 852.1 | 848.2 | 0.652 | 0.617 | 0.58
x1 = 0.2617 | 859.5 | 855.4 | 851.4 | 0.617 | 0.585 | 0.551
x1 = 0.3812 | 863.3 | 859.1 | 855 | 0.585 | 0.557 | 0.526
x1 = 0.487 | 867.1 | 862.7 | 858.5 | 0.559 | 0.533 | 0.504
x1 = 0.5882 | 871 | 866.5 | 862.2 | 0.537 | 0.513 | 0.485
x1 = 0.6817 | 875.1 | 870.4 | 866 | 0.517 | 0.495 | 0.468
x1 = 0.7675 | 879.2 | 874.4 | 869.8 | 0.506 | 0.485 | 0.459
x1 = 0.8499 | 883.5 | 878.6 | 873.9 | 0.494 | 0.474 | 0.448
x1 = 0.9277 | 888.1 | 883 | 878.2 | 0.484 | 0.464 | 0.439
x1 = 1 | 893.5 | 888.6 | 883.8 | 0.477 | 0.456 | 0.431

CCCOC=O [propyl methanoate] + CCCCc1ccccc1
[2]
Settings | mass density, 303.15 K [kg/m3] | mass density, 308.15 K [kg/m3] | mass density, 313.15 K [kg/m3] | viscosity, 303.15 K [mPa·s] | viscosity, 308.15 K [mPa·s] | viscosity, 313.15 K [mPa·s]
x1 = 0.1483 | 854.7 | 851 | 847.3 | 0.823 | 0.772 | 0.723
x1 = 0.2855 | 858.4 | 854.6 | 850.7 | 0.753 | 0.71 | 0.667
x1 = 0.4066 | 862.2 | 858.2 | 854.3 | 0.696 | 0.658 | 0.619
x1 = 0.5164 | 866.2 | 862.1 | 858 | 0.649 | 0.616 | 0.58
x1 = 0.6148 | 870.3 | 866 | 861.8 | 0.609 | 0.579 | 0.546
x1 = 0.7042 | 874.5 | 870.1 | 865.8 | 0.575 | 0.547 | 0.517
x1 = 0.7884 | 879.1 | 874.5 | 869.9 | 0.545 | 0.52 | 0.491
x1 = 0.8642 | 883.8 | 879 | 874.2 | 0.519 | 0.497 | 0.47
x1 = 0.9339 | 888.6 | 883.7 | 878.7 | 0.498 | 0.476 | 0.451
x1 = 1 | 893.5 | 888.6 | 883.8 | 0.477 | 0.456 | 0.431

CCCOC=O [propyl methanoate] + c1ccccc1
[2]
Settings | mass density, 303.15 K [kg/m3] | mass density, 308.15 K [kg/m3] | mass density, 313.15 K [kg/m3] | viscosity, 303.15 K [mPa·s] | viscosity, 308.15 K [mPa·s] | viscosity, 313.15 K [mPa·s]
x1 = 0.0918 | 869.6 | 865.1 | 860.6 | 0.54 | 0.512 | 0.479
x1 = 0.1874 | 871.4 | 866.8 | 862.3 | 0.518 | 0.49 | 0.462
x1 = 0.2822 | 873.6 | 868.9 | 864.3 | 0.504 | 0.476 | 0.448
x1 = 0.3785 | 875.8 | 871.1 | 866.5 | 0.49 | 0.466 | 0.437
x1 = 0.4767 | 878.2 | 873.4 | 868.7 | 0.48 | 0.456 | 0.431
x1 = 0.5772 | 880.6 | 875.8 | 871.1 | 0.474 | 0.449 | 0.425
x1 = 0.6802 | 883.4 | 878.5 | 873.7 | 0.471 | 0.451 | 0.426
x1 = 0.7854 | 886.2 | 881.3 | 876.5 | 0.469 | 0.448 | 0.423
x1 = 0.8924 | 889.4 | 884.4 | 879.5 | 0.467 | 0.446 | 0.421
x1 = 1 | 893.5 | 888.6 | 883.8 | 0.477 | 0.456 | 0.431
